The values that follow come from US20020155172A1, “Methods and compounds for decreasing cell toxicity or death” (priority 2000, published 2002).

One test has as its system GST-Q81 beads. The experiment in a line: Chemical absorption assay, Q81. It counts as binding. Conditions: 25 μM of each (FIG. 6B). Here is the method:
FIG. 6B is a graph of the percent of binding of various compounds to amyloid-like Q81 aggregates measured using a chemical absorption assay. The anti-amyloid compounds minocycline, Chrysamine G, Rolitetracycline, iota carrageenan, dextran 500 (dextran), or Congo red (25 μM of each) were pre-absorbed with Q81 GST recombinant protein and the percentage absorbance of the compound remaining in the supernatant after absorption with GST-Q81 beads is plotted on the y-axis.
To determine if Congo red and its derivatives directly bind to expanded polyglutamine aggregates, we designed a chemical absorption assay. This assay measures the remaining Congo red in the supernatant after incubating the supernatant with GST-tagged polyglutamine beads, and removing the GST-polyglutamine beads by centrifugation. This assay was carried out as follows. Recombinant protein GST-Q19, GST-Q62, and GST-Q81 (containing 19, 62, and 81 polyglutamines, respectively) was purified from E. coli by glutathione beads. After several washes with PBS containing protease inhibitors, the beads were allowed to settle to the bottom of the tube at 24° C. for 10 minutes. The polyglutamine-bound beads were aliquoted and diluted with two volumes of 10 μg/ml of Congo red in PBS. The beads were mixed and centrifuged at 15,000 rpm for 2 minutes and the supernatant was removed and diluted 1:100. The percentage absorbance of the compound remaining in the supernatant after absorption with the GST-polyQ beads was then detected. In addition, Congo red- or PBS-only treated polyglutamine polypeptide bead pellets were washed three times with 100 volumes of PBS and then the protein was separated by 12% polyacrylamide gels and immunoblotted as mentioned above. Some blots were used for immunostaining with anti-polyglutamine antibody (EM48). Other blots were left unstained to visualize the red color of Congo red that entered the gel along with the polyglutamine protein.
Binding of the above-identified compounds to amyloid-like Q81 aggregates was also assessed by a chemical absorption assay. The compounds indicated in FIG. 19 (25 μM of each) were pre-absorbed with a Q81 GST recombinant protein and the percentage absorbance of the compound remaining in the supernatant after absorption with GST-Q81 beads was then detected.

In test [1] the test system is polyglutamine aggregates of HA-Q79-GFP expressing cells. Description: Filter assay (0.2 μm acetate filter). It counts as cell-based. Here is the method:
FIG. 6D is a scanned image of a filter showing the effect of Congo red on pre-formed oligomers as assessed by the filter assay described herein. Cells were treated with PBS or 100 μM of Congo red 6 hours after transfection with Q79-GFP. Lysates from these cells were obtained 42 hours later, and passed through a 0.2 micron pore filter. In addition, Q79 aggregates were treated with Congo red after they were recovered from cells to test for disruption of pre-formed aggregates.
FIG. 7C is an image of an immunoblot of lysates from Q79 expressing cells that were treated with PBS or Congo red during or after transfection, as indicated in the Figure and passed through a 0.2 micron filter. Endogenous caspase-8 and the adapter protein FADD were trapped in the filter in cell lysates containing oligomerized polyglutamine repeats, and probed using a caspase-8 or FADD antibody.
To further confirm the ability of Congo red to inhibit the formation of polyglutamine aggregates, as well as to disrupt preformed aggregates, we analyzed the state of polyglutamine aggregation by examining equal aliquots of total lysates from Congo-red- or vehicle-treated HA-Q79-GFP expressing cells, or the lysates that were treated with Congo red or vehicle after cell lysis. The cell lysates were passed through a 0.2 μm acetate filter and then visualized by immunostaining with anti-HA antibody (FIG. 6D).

The test system of the next test is R62 mice. Description: Survival. It counts as in vivo. Conditions: infused intraperitoneally. From the text: FIG. 10G is a graph of the effect of PBS (vehicle; delivered intraperitoneally) or Congo red, infused intraperitoneally, on survival of HD transgenic mice.
In addition, the ability of Congo red to inhibit the formation as well as to disrupt preformed polyglutamine oligomers allowed us to examine the role of polyglutamine aggregates in neuronal dysfunction and degeneration characteristic of polyglutamine expansion diseases. In these studies, we used the animal model of Huntington's disease (R62), which expresses the truncated form of huntingtin with 139 CAG repeats Mangiarini et al. (supra). We took advantage of our finding that in addition to inhibiting polyglutamine oligomerization, Congo red also disrupts pre-formed oligomers, thus allowing assessment of the impact of Congo red on disease progression after formation of polyglutamine aggregates and the onset of symptoms. R62 transgenic mice and CBAxC57B1/6 F1 wild type littermates were obtained from Jackson Laboratories (Bar Harbor, Me.) at the age of five weeks. […]
The initial abnormal neurological signs of R62 mice include dyskinesia of the hindlimbs when mice were suspended by the tail, and irregular gait. […] The effect of Congo red on motor performance in R62 mice was also assessed by rotarod studies. […]

On to `Nc1c(/N=N/c2ccc(-c3ccc(/N=N/c4cc(S(=O)(=O)O)c5ccccc5c4N)cc3)cc2)cc(S(=O)(=O)O)c2ccccc12` [Congo red, diphenyldiazo-bis-alpha-napthylaminesulfonate], for which the “binding to 81-repeat polyglutamine polypeptide” value in the test on GST-Q81 beads is recorded as “binds to expanded polyglutamines”. Further, the “polyglutamine aggregates retained by 0.2 μm filter, lysates treated” value in test [1] (cell lysates treated with Congo red after cell lysis) is “undetectable”. In addition, in test [1] (cells treated with Congo red (100 μM) 6 hours after transfection), the “polyglutamine aggregates retained by 0.2 μm filter, cells treated” value is reported as “undetectable”. Besides, in test [1] (lysates of Q79 expressing cells), the “FADD and caspase-8 in a complex retained by 0.2 μm filter” value is reported as “not in Congo red-treated lysates”. This compound also displayed a mean survival length in the test with R62 mice of 106 days.
